Series [1] deals with SARS-CoV-2. Description: Antiviral activity against SARS-CoV-2 infected in African green monkey Vero E6 cells assessed as reduction in infection measured after 24 hrs by Plaque assay. The class given is functional, organism-based. Conditions: Severe acute respiratory syndrome coronavirus 2, Vero C1008, 24 h.
Series [2] is described as follows: Oral bioavailability in mouse by LC-MS/MS analysis. The class given is ADME, organism-based. Conditions: in vivo.
Series [3] can be described thus: Oral bioavailability in Beagle dog by LC-MS/MS analysis. The class given is ADME, organism-based, Canis lupus familiaris. Conditions: in vivo.
The target of series [4] is T1, Replicase polyprotein 1ab (Severe acute respiratory syndrome coronavirus 2, UniProt P0DTD1). Briefly: Inhibition of SARS-CoV-2 HKU-001a 3CL protease.
Series [5] is described as follows: Oral bioavailability in Sprague-Dawley rat by LC-MS/MS analysis. It is filed as ADME, organism-based. Conditions: in vivo.
Series [6] deals with T1, Replicase polyprotein 1ab. Description: Inhibition of SARS-CoV-2 3CL protease.
The species entered for series [7] is Homo sapiens. Briefly: Antiviral activity against SARS-CoV-2 infected in human A549-ACE2 cells by immunofluorescence microscopic technique. The class given is functional, cell-based.
The target of series [8] is T1, Replicase polyprotein 1ab. Briefly: Inhibition of SARS-CoV-2 3CL protease expressed in escherichia coli measured after 24 hrs by SDS-PAGE.
Series [9] relates to SARS-CoV-2. Briefly: Antiviral activity against SARS-CoV-2 infected in […] Caco-2 cells. It is filed as functional, organism-based. Conditions: Severe acute respiratory syndrome coronavirus 2, Caco-2.
The target in the next series is T2, Calpain1/2 (Homo sapiens, UniProt P17655+P07384).
T2 sequence (P17655 whole entry): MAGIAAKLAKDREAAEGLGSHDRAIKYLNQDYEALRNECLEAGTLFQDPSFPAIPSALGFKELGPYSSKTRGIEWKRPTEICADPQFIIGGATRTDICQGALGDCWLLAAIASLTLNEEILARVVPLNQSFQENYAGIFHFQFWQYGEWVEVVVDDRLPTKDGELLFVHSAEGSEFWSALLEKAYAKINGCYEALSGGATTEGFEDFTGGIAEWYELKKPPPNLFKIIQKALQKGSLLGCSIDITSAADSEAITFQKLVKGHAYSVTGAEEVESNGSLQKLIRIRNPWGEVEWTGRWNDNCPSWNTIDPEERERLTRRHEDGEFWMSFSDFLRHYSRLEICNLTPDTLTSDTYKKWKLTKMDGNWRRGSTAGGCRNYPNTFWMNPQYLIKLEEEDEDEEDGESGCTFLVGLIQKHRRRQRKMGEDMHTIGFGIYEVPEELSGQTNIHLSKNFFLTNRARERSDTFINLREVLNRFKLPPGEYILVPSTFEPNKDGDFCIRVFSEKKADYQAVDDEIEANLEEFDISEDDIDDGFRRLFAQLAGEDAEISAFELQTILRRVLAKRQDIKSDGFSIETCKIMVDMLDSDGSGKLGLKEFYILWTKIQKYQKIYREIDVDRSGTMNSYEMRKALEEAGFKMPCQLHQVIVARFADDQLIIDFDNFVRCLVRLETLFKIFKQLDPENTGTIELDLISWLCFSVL
T2 sequence (P07384 whole entry): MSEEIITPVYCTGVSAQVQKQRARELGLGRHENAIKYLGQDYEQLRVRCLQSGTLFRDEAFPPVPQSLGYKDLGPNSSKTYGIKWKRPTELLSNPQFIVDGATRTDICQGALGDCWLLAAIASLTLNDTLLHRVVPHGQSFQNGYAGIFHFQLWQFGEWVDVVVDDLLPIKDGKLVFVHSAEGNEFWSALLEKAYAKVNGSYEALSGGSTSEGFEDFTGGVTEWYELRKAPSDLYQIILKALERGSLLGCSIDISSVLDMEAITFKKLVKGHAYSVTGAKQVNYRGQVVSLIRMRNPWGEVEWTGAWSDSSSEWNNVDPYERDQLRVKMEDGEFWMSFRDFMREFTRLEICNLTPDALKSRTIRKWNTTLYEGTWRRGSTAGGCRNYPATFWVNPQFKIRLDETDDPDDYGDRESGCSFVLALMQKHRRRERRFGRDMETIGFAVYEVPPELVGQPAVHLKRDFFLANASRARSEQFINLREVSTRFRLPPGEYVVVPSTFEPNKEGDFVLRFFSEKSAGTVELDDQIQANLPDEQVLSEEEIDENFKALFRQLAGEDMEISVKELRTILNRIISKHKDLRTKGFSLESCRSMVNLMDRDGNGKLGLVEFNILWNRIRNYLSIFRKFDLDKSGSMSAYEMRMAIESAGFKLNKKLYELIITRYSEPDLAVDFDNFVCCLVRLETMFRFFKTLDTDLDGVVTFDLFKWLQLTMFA
Description: Inhibition of human calpain using Z-Phe-Arg-AMC as substrate incubated for 30 mins by FRET assay. The class given is protein assay.

A short description of series [10]: Inhibition of human cathepsin using Z-Phe-Arg-AMC as substrate incubated for 30 mins by FRET assay.
In another series the target is T3, Caspase-3 (Homo sapiens, UniProt P42574).
T3 sequence (P42574 whole entry): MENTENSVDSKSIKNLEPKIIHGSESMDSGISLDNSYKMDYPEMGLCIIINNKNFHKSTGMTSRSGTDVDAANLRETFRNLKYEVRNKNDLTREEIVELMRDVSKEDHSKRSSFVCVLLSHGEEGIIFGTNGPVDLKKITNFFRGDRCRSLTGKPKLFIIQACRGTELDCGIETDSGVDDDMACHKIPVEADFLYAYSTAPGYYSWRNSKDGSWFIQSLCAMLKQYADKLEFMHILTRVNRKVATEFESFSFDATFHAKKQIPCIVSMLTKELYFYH
Description: Inhibition of human caspase 3 using Z-Phe-Arg-AMC as substrate incubated for 30 mins by FRET assay.

A further series concerns the target Trypsin (Homo sapiens, UniProt P07477+P07478+P35030). Briefly: Inhibition of human Trypsin using Z-Phe-Arg-AMC as substrate incubated for 30 mins by FRET assay. The class given is protein assay.
In series [11] the test system is SARS-CoV-2. Description: Antiviral activity against SARS-CoV-2 infected in African green monkey Vero E6 cells. It is filed as functional, organism-based. The note with it: Severe acute respiratory syndrome coronavirus 2, Vero C1008.
The species named for series [12] is Homo sapiens. Description: Antiviral activity against SARS-CoV-2 infected in human A549-ACE2 cells. The class given is functional, cell-based.

Among the data in ChEMBL document CHEMBL5252565, “Advances in research on 3C-like protease (3CLpro) inhibitors against SARS-CoV-2 since 2020” (RSC Med Chem, 2023) are IC50, bioavailability and EC50 values, retold here.

Structures are written as SMILES.

Usually IC50 stands for the point on the concentration scale where inhibition reaches its midpoint. `O=C[C@H](C[C@@H]1CCNC1=O)NC(=O)[C@H](Cc1cccc(F)c1)NC(=O)c1cc2ccccc2[nH]1`: in the series on SARS-CoV-2 [1], the IC50 amounted to 720 nM.
A word on the bioavailability: it is dose-corrected exposure relative to a reference, in per cent. As for `[2H][C@](C(=O)N[C@@H](C)c1ccc(F)cc1)(c1cccnc1)N(C(=O)C(C)=O)c1ccc2c(c1)oc1ccccc12`, the bioavailability in series [2] was found to be 92.9%; in series [3], 85.7%; in [5], 31.9%. The compound also had an IC50 in series [4] of 8.1 nM.
As to `O=C[C@H](C[C@@H]1CCNC1=O)NC(=O)[C@@H]1[C@H]2CCC[C@H]2CN1C(=O)CCc1cc(F)cc(F)c1`, in [6], the IC50 was found to be 7.6 µM.
As usually defined, the EC50 is the concentration at which the effect is half-maximal. As for `CNC(=O)c1cc(Br)cc([N+](=O)[O-])c1N[C@@H]1CCCC[C@@H]1NC(=O)c1cccc2ccccc12`, the EC50 in the series listed under Homo sapiens [7] was 12 nM. Also, the IC50 in series [8] stood at 72 nM.
For the compound `C[C@H](NC(=O)[C@@H](c1cccnc1)N(C(=O)C(Cl)Cl)c1ccc(-c2ccccc2)cc1)c1ccccc1`, the EC50 was 2050 nM in the series with SARS-CoV-2 [9] and 900 nM with SARS-CoV-2 [11]. Moreover, the IC50 (against Calpain1/2; in series [10]; against Caspase-3; on Trypsin) was above 20 µM throughout.
With `Cc1ccc(NC(=O)c2ccc(CN3CCN(C)CC3)cc2)cc1Nc1nc(-c2cccnc2)cs1` [MASITINIB], in the series filed under Homo sapiens [12], the midpoint of the response, the EC50, lay at 3.2 µM.
